# In patent US20250099420A1, “SMALL MOLECULE MODULATORS OF GPR139 COMPLEX” (University of Florida Research Foundation, Incorporated, priority 2022, published 2025):
# Read-outs that look alike come from different tables or passages of the source.
# Columns and labels:
# GPR139 = molecular target: T1, GPR139 (Homo sapiens, UniProt Q6DWJ6); experiment: GPR139 Agonist titration / agonist counterscreen assay (calcium detection, HEK-GPR139 cells); format: cell-based; set-up: expressed in transfected cells; host or cells: HEK Aequorin cells, Maxcyte transient transfection; conditions: GPR139 Agonist Activity; for EC50: read-out: EC50; for Averaged Max % Response (±St. Dev.): activity relative to known control
# T1 sequence (Q6DWJ6 1-353): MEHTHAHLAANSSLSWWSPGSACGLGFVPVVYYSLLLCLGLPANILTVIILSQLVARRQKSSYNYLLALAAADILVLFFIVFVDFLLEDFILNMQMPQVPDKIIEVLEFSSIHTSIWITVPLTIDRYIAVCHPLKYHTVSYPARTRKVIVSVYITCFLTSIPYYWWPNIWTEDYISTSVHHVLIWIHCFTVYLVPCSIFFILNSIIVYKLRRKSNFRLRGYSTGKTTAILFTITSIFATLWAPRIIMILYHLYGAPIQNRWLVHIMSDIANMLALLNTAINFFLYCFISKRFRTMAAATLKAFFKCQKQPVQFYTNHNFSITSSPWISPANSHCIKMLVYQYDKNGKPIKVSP
# Description: GPR activity was assessed using a calcium detection assay. […] Negative control samples were treated with DMSO. […] Intracellular calcium was measured using Calcium 5.
# parental HEK cells = experiment: HEK parental Agonist Counterscreen Assay (non-transfected cells); format: cell-based; conditions: for Averaged Max % Response (±St. Dev.): activity relative to known control
# Excerpt: The high control for the agonist counterscreen was Forskolin not acetylcholine.
# [1] = HEK Agonist Activity section of Table 4 (parental HEK counterscreen)
# [2] = values printed in E-notation without unit
# [3] = Homo sapiens, HEK293, HEK Agonist Activity section of Table 4 (parental HEK counterscreen)
# [4] = Homo sapiens, HEK293, HEK Agonist Activity, parental non-transfected HEK cells
# [5] = HEK Agonist Activity, parental non-transfected HEK cells
Structure (SMILES),Efficiency Ligand (GPR139),Hill Slope (GPR139),Lipophilic Efficiency (logD) (GPR139),Lipophilic Efficiency (logP) (GPR139),EC50 (GPR139; HEK-GPR139 cells) [nM],Averaged Max % Response (±St. Dev.) (GPR139) [%],Lipophilic Efficiency (logD) (parental HEK cells; HEK Agonist Activity section),Lipophilic Efficiency (logP) (parental HEK cells; HEK Agonist Activity section),Averaged Max % Response (±St. Dev.) (parental HEK cells; HEK Agonist Activity section) [%],Lipophilic Efficiency (logD) (GPR139; based on logD),Lipophilic Efficiency (logP) (GPR139; based on logP),Hill Slope (GPR139; fitted dose-response curve),Efficiency Ligand (GPR139; ligand efficiency),EC50 (GPR139; [2]) [nM],EC50 (parental HEK cells; [3]) [nM],Lipophilic Efficiency (logD) (parental HEK cells; HEK Agonist Activity),Lipophilic Efficiency (logP) (parental HEK cells; HEK Agonist Activity),Averaged Max % Response (±St. Dev.) (parental HEK cells; HEK Agonist Activity) [%],EC50 (parental HEK cells; [5]) [nM],other results
Cc1cc(C)c2c(cnn2CC(=O)N2CCc3ccccc3C2)c1 [SR-01000154995],0.36,1.08,2.91,2.91,572,88.51 ± 8.87,1.52,1.52,41.69 ± 44.54,–,–,–,–,–,–,–,–,–,–,EC50 (parental HEK cells; [1]): > 14100 nM
O=C(Cn1ncc2c(Cl)cccc21)NCCc1ccc(Cl)cc1 [SR-01000155030],–,–,–,–,–,113.63 ± 16.89,1.32,1.32,10.75 ± 8.11,3.06,3.06,0.65,0.40,252,> 14100,–,–,–,–,–
CC(NC(=O)Cn1ncc2c(Cl)cccc21)c1ccc2c(c1)OCCO2 (stereo not shown) [SR-01000155068],–,–,–,–,–,127.51 ± 13.72,–,–,–,5.00,5.00,0.58,0.41,26.7,–,2.28,2.28,−2.13 ± 1.88,–,EC50 (parental HEK cells; [4]): > 14100 nM
CC1CCC(NC(=O)CCC(=O)N2CCSc3ccccc32)CC1 (stereo not shown) [SR-01000159110],–,–,–,–,–,95.57 ± 19.71,–,–,–,5.19,5.19,1.18,0.45,16.1,–,2.25,2.25,3.44 ± 10.60,–,EC50 (parental HEK cells; [4]): > 14100 nM
CC(C)CCNC(=O)CN1CCN(Cc2ccc(F)cc2Cl)C1=O [SR-01000161248],0.38,1.12,4.17,4.17,309,106.33 ± 15.91,2.51,2.51,−6.23 ± 14.84,–,–,–,–,–,–,–,–,–,–,EC50 (parental HEK cells; [1]): > 14100 nM
Cc1ccccc1-c1nnc(CN2CCc3ccccc3C2)o1 [SR-01000162178],0.40,1.13,3.44,3.29,272,112.85 ± 32.26,1.73,1.58,25.44 ± 6.84,–,–,–,–,–,> 14100,–,–,–,–,–
CC(C)CN1CCNC(=O)C1CC(=O)NCCCn1ccc2ccccc21 (stereo not shown) [SR-01000176150],–,–,–,–,–,110.06 ± 19.04,–,–,–,6.35,6.03,0.64,0.40,19.2,–,3.48,3.17,−3.65 ± 2.66,> 14100,–
COc1ccccc1CN1CCNC(=O)C1CC(=O)NCCCN1CCc2ccccc21 (stereo not shown) [SR-01000176838],0.27,0.77,4.34,4.32,697,83.30 ± 1.40,3.04,3.02,−8.12 ± 1.57,–,–,–,–,–,> 14100,–,–,–,–,–
CC(C)(C)CN1CCNC(=O)C1CC(=O)NCCc1cnn(-c2ccccc2)c1 (stereo not shown) [SR-01000177515],–,–,–,–,–,91.26 ± 4.77,–,–,–,5.92,5.67,0.48,0.37,22.6,–,3.12,2.87,24.98 ± 4.71,> 14100,–
O=C(NCC1Cc2cccc(-c3ccccn3)c2O1)c1ccc(-n2cccn2)cc1 (stereo not shown) [SR-01000183606],–,–,–,–,–,89.43 ± 6.88,–,–,–,3.97,3.96,0.82,0.36,22,–,1.16,1.16,−9.57 ± 3.95,> 14100,–
